Measured values from patent US20070189973A1, “Contrast medium comprising liposomes containing hydrophobic chelate compound” (priority 2003, published 2007).

Tested on: vascular smooth muscle cells
Experiment: Uptake amount of chelate compound by vascular smooth muscle cells (mixed culture with macrophages)
Assay type: cell-based
Conditions: liposome preparation PC: 50 nmol+PS: 50 nmol+Compound 1: 75 nmol; mixed culture system of vascular smooth muscle cells and macrophage; 37° C., 5% CO2, 24 hours
Protocol: Uptake Amount of Chelate Compound by Vascular Smooth Muscle Cells
Dipalmitoyl-PC (Funakoshi, No. 1201-41-0225) and dipalmitoyl-PS (Funakoshi, No. 1201-42-0237) at the ratio shown below were dissolved in chloroform together with a hydrophobic chelate compound (Compound 1 specifically shown above as a preferred compound) in an eggplant-shaped flask according to the method described in J. Med. Chem., 25 (12), 1500 (1982) to form a uniform solution. Then, the solvent was evaporated under reduced pressure to form a thin membrane on the bottom of the flask bottom. This thin membrane was dried in vacuum, then added with an appropriate amount of 0.9% physiological saline (Hikari Pharmaceutical, No. 512) and subjected to ultrasonication (No. 3542 probe type oscillator, Branson, 0.1 mW) for 5 minutes to obtain a uniform liposome dispersion. The diameters of the liposomes in the resulting dispersion were measured by using WBC analyzer (A-1042, Nihon Kohden). […] The liposome preparation mentioned below, which was produced by the above method, was added to a mixed culture system of vascular smooth muscle cells and macrophage described in International Publication WO 01/82977. The cells were cultured at 37° C. under 5% CO2 for 24 hours, and the amount of the chelate compound taken up into the vascular smooth muscle cells was quantified.
PC: 50 nmol+PS: 50 nmol+Compound 1: 75 nmol […]

`CC(C)CCCC(C)C1CCC2C3C=CC4CC(OC(=O)COC(=O)CN(CCN(CC(=O)O)CC(=O)O)CCN(CC(=O)O)CC(=O)O)CCC4(C)C3CCC12C` (stereo not shown) [Compound 1] was tested, and the “Amount taken up by vascular smooth muscle cells” value was 20 nmol/mg protein.
